Measurements: EP1020526B1, “Process for producing L-Threonine by fermentation” (priority 1992, dated 1994)
pIC50: −log10 of the molar value. ≈ marks a conversion by molar mass, not a printed value.

Legend:
[1] = system: GT3/pLYSC1; test: Growth of completely AK-deficient GT3 strain possessing lysC plasmid on M9 minimal agar with added lysine or AEC; for Growth: key: +: growth; ±: some growth; -: no growth; type: cell-based, E. coli; details: for growth: M9 agar medium, 37°C, 2 day culturing; for MIC: Escherichia coli, GT3, M9 minimal agar plate medium, read-out: concentration at which growth was completely inhibited
Method: (§1) First, pLYSC1 and pLYSC2 were each incorporated into E. coli GT3 for its transformation to obtain two different transformants, and culturing was effected on an M9 minimal agar plate medium containing lysine or AEC. Also, the growth inhibition concentration of lysine or AEC was determined, and the conditions for selection of lysC* were investigated.

[2] = system: GT3/pLYSC2; test: as above; type: cell-based, E. coli; details: M9 agar medium, 37°C, 2 day culturing; note: key: +: growth; ±: some growth; -: no growth
Method: as §1

[3] = molecular target: T1, Escherichia coli aspartokinase III (AK III, lysC), wild type, SEQ ID NO: 1 (Escherichia coli, UniProt P08660); test: Aspartokinase (AK III) activity, lysine-dependent inhibition, crude enzyme, hydroxamate method of Stadtman et al.; type: biochemical
T1 construct: made in house; host or cells: E. coli GT3 (lacks AK I, II and III) carrying pLYSC1; cell-free extract, ammonium sulfate fraction
T1 sequence (P08660 2-449): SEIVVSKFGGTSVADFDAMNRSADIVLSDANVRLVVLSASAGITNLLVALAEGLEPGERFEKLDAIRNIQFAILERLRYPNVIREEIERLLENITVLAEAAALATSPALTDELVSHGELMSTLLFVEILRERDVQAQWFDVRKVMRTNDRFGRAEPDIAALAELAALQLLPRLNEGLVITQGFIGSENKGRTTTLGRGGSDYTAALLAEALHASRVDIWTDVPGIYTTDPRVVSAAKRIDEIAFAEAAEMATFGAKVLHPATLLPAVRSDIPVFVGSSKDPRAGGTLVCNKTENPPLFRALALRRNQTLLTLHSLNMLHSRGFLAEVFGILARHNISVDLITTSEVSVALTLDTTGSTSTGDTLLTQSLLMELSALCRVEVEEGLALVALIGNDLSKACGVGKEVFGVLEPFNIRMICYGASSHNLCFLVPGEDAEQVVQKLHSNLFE
Method: (§2) A completely AK-deficient GT3 strain was used as the host in respect of which the above mentioned 14 mutant pLYSC1's (named the pLYSC1* series) and wild pLYSC1 plasmids were respectively used for transformation, after which a cell-free extract was prepared from the transformants and the enzyme activity of AK III was measured. The method for the measurement of the enzyme activity was as follows.
(§3) • (1) Culturing of cells in 2 x TY medium, followed by cell collection at O.D. 660 nm = approx. 0.8. • (2) Washing with 0.02 M KH2PO4 (pH 6.75) - 0.03 M β mercaptoethanol at 0°C. • (3) Sonic crushing of cells (0°C, 100 W, 30 sec x 4 times). • (4) Centrifugation at 0°C, 33 krpm for 1 hour, followed by addition of ammonium sulfate to supernatant to 80% saturation. • (5) Centrifugation, followed by dissolution of pellets in buffer of (2), and preservation (-20°C).
(§4) The method of measuring the enzyme activity was according to the method of Stadtman, et al. (Stadtman, E.R., Cohen, G.N., Lebras, G. and Robichon-Szulmajster, H., J. Biol. Chem., 236, 2033, 1961).
(§5) Table 5: Reaction solution composition
(§6) The measurement method is outlined in Table 6 below. Table 6: Outline of measurement method
(§7) For the measurement of the enzyme activity of AK, lysine was added to the enzyme reaction solutions at various concentrations, and the levels of lysine-dependent inhibition were determined.
(§8) In Table 7, the inhibition release is presented as the activity (%) in the presence of 100 mM of lysine with respect to the activity of a lysine-free reaction solution, and the thermal stability is presented as the maintenance of activity (%) after treatment at 55°C for 1.5 hours with respect to the activity without heating. Table 7: Inhibition release by lysine and thermal stability

[4] = molecular target: T2, Escherichia coli aspartokinase III (AK III) mutant lysC* No. 24, 352 Thr→Ile (Escherichia coli, UniProt P08660, T352I); test: Aspartokinase (AK III) activity, lysine-dependent inhibition; type: biochemical
T2 construct: made in house; host or cells: E. coli GT3 carrying mutant pLYSC1*; cell-free extract
T2 sequence (P08660 2-449 T352I): as the sequence (P08660 2-449) above, with T351I counted along it
Method: as §2, §3, §4, §5, §6, §7, §8

[5] = molecular target: T3, Escherichia coli aspartokinase III (AK III) mutant lysC* No. 117, 345 Ser→Leu (Escherichia coli, UniProt P08660, S345L); test: as above; type: biochemical
T3 construct: made in house; host or cells: E. coli GT3 carrying mutant pLYSC1*; cell-free extract
T3 sequence (P08660 2-449 S345L): as the sequence (P08660 2-449) above, with S344L counted along it
Method: as §2, §3, §4, §5, §6, §7, §8

[6] = molecular target: T4, Escherichia coli aspartokinase III (AK III) mutant lysC* No. 149, 34 Arg→Cys, 323 Gly→Asp (Escherichia coli, UniProt P08660, G323D/R34C); test: as above; type: biochemical; details: activity in the presence of 100 mM of lysine with respect to lysine-free reaction solution
T4 construct: made in house; host or cells: E. coli GT3 carrying mutant pLYSC1*; cell-free extract
T4 sequence (P08660 2-449 R34C/G323D): as the sequence (P08660 2-449) above, with R33C, G322D counted along it
Method: as §2, §3, §4, §5, §6, §7, §8

[7] = molecular target: T5, Escherichia coli aspartokinase III (AK III) mutant lysC* No. 172, 318 Met→Ile, 349 Val→Met (Escherichia coli, UniProt P08660, M318I/V349M); test: as above; type: biochemical
T5 construct: made in house; host or cells: E. coli GT3 carrying mutant pLYSC1*; cell-free extract
T5 sequence (P08660 2-449 M318I/V349M): as the sequence (P08660 2-449) above, with M317I, V348M counted along it
Method: as §2, §3, §4, §5, §6, §7, §8

[8] = molecular target: T6, Escherichia coli aspartokinase III (AK III) mutant lysC* No. 169, 352 Thr→Ile, 369 Ser→Phe (Escherichia coli, UniProt P08660, S369F/T352I); test: as above; type: biochemical
T6 construct: made in house; host or cells: E. coli GT3 carrying mutant pLYSC1*; cell-free extract
T6 sequence (P08660 2-449 T352I/S369F): as the sequence (P08660 2-449) above, with T351I, S368F counted along it
Method: as §2, §3, §4, §5, §6, §7, §8

[9] = molecular target: T7, Escherichia coli aspartokinase III (AK III) mutant lysC* No. 80, 352 Thr→Ile (Escherichia coli, UniProt P08660, T352I); test: as above; type: biochemical
T7 construct: made in house; host or cells: E. coli GT3 carrying mutant pLYSC1*; cell-free extract
T7 sequence (P08660 2-449 T352I): as the sequence (P08660 2-449) above, with T351I counted along it
Method: as §2, §3, §4, §5, §6, §7, §8

[10] = lysine, compared with wild type AK III

| SMILES | growth ([1]; 0.2 mM added) | growth ([1]; 0.4 mM added) | growth ([1]; 0.8 mM added) | growth ([1]; 1.5 mM added) | growth ([1]; 3 mM added) | growth ([1]; 6 mM added) | growth ([1]; 12 mM added) | growth ([1]; 25 mM added) | growth ([1]; 50 mM added) | MIC [1] | growth ([2]; 0.2 mM added) | growth ([2]; 0.4 mM added) | growth ([2]; 0.8 mM added) | growth ([2]; 1.5 mM added) | growth ([2]; 3 mM added) | growth ([2]; 6 mM added) | growth ([2]; 12 mM added) | growth ([2]; 25 mM added) | growth ([2]; 50 mM added) | also measured |
| --- | --- | --- | --- | --- | --- | --- | --- | --- | --- | --- | --- | --- | --- | --- | --- | --- | --- | --- | --- | --- |
| NCCSC[C@H](N)C(=O)O [AEC, S-2-aminoethylcysteine, reference compound] | - | - | - | - | - | - | - | - | - | ~200 µM (≈ 32.8 µg/mL) | ± | ± | ± | ± | ± | - | - | - | - |  |
| NCCCC[C@H](N)C(=O)O [lysine] | - | - | - | - | - | - | - | - | - | ~200 µM (≈ 29.2 µg/mL) | + | + | + | + | + | + | + | + | + | pIC50 [3]: ~3.35; inhibition at 5000 µM ([3]; 5 mM of lysine): ~100%; activity at 100000 µM ([3]; activity in the presence of 100 mM of lysine with respect to lysine-free reaction solution, read-out: Inhibition release (%)): 0%; inhibition ([4]; 100 mM of lysine): practically no inhibition; 50% inhibition concentration (fold) [4, 10]: ≥ 200 fold; inhibition ([5]; 100 mM of lysine): practically no inhibition; 50% inhibition concentration (fold) [5, 10]: ≥ 200 fold; Inhibition release (%) [6]: 59%; inhibition ([7]; 100 mM of lysine): practically no inhibition; 50% inhibition concentration (fold) [7, 10]: ≥ 200 fold; inhibition ([8]; 100 mM of lysine): practically no inhibition; 50% inhibition concentration (fold) [8, 10]: ≥ 200 fold; inhibition ([9]; 100 mM of lysine): practically no inhibition; 50% inhibition concentration (fold) [9, 10]: ≥ 200 fold; growth ([1]; 100 mM added): -; growth ([1]; 200 mM added): -; growth ([2]; 100 mM added): ±; growth ([2]; 200 mM added): - |
